Measured values: US11597702B2, “Substituted pyrazoles FFA4/GPR120 receptor agonists” (AXXAM S.P.A., priority 2018, dated 2023)

Target: T1, GPR120 (Homo sapiens, UniProt Q5NUL3)
T1 construct: expressed in transfected cells; host or cells: CHO mitoPhotinaGPR120 cells
T1 sequence (Q5NUL3 1-361): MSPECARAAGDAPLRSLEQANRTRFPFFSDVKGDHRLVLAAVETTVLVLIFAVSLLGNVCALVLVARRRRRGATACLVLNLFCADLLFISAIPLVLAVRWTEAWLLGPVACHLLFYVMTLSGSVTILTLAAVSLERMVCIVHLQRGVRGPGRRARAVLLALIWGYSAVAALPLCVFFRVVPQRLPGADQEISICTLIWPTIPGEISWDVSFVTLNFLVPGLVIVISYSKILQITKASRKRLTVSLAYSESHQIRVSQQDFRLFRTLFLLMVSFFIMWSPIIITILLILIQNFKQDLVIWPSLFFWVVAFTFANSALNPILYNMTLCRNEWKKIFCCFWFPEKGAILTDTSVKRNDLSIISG
Test: GPR120 agonism in CHO mitoPhotinaGPR120 cell based assay with fluorescent (Fluo-8 calcium, FLIPRTetra) readout, Agonist Mode, dose response
Conditions: CHO mitoPhotinaGPR120 cells, Fluo-8 No Wash Ca2+ dye, dose response in quadruplicate, 0.0033% fatty acid free BSA
Description: Compounds of the invention were tested for GPR120 agonism in a CHO mitoPhotinaGPR120 cell based assay with fluorescent readout in Agonist Mode in dose response in quadruplicate with intra-plate modality.
Twenty (20) h after seeding, growth medium was manually removed and cells were starved in the presence of 25 μL/w of Standard Tyrode's Buffer. After 3 h, cells were loaded with 20 μL/w of 0.5× Fluo-8 No Wash (AAT Bioquest, Inc.) Ca2+ sensitive dye prepared in Standard Tyrode's Buffer. Cells were incubated for 1 h at room temperature in the dark. Ten (10) μL/w 3× of controls and compounds were diluted in Standard Tyrode's Buffer+0.01% fatty acid free BSA (final concentration=0.0033%) and injected at the FLIPRTetra®, recording the kinetic calcium traces for 3 minutes. Standard Tyrode's buffer composition: 5 mM KCl, 130 mM NaCl, 2 mM CaCl2), 5 mM NaHCO3, 1 mM MgCl2, 20 mM HEPES, pH7.4.

Compound `Cc1nn(-c2ccccc2)c(COc2c(F)cc(CC(C)CO)cc2F)c1C#N` (racemic) [Example 43, 5-[[2,6-difluoro-4-(3-hydroxy-2-methyl-propyl)phenoxy]methyl]-3-methyl-1-phenyl-pyrazole-4-carbonitrile] has an EC50 of 0.45 µM.
For `Cc1nn(-c2ccccc2)c(COc2ccc(CCC(C)O)cc2)c1C#N` (racemic) [Example 47, 5-[[4-(3-hydroxybutyl)phenoxy]methyl]-3-methyl-1-phenyl-pyrazole-4-carbonitrile], the EC50 was 1.65 µM.
In the case of `Cc1nn(-c2ccccc2)c(COc2c(F)cc(CC(C)CO)cc2F)c1C#N` (single isomer, unassigned; (+)) [Example 43A, (+)-5-[[2,6-difluoro-4-(3-hydroxy-2-methyl-propyl)phenoxy]methyl]-3-methyl-1-phenyl-pyrazole-4-carbonitrile], the EC50 is reported as 0.34 µM.
With `Cc1nn(-c2ccccc2)c(COc2c(F)cc(CC(C)CO)cc2F)c1C#N` (single isomer, unassigned; (+)) [Example 43B, (+)-5-[[2,6-difluoro-4-(3-hydroxy-2-methyl-propyl)phenoxy]methyl]-3-methyl-1-phenyl-pyrazole-4-carbonitrile] the EC50 was 1.69 µM.
`Cc1nn(-c2ccccc2)c(COc2ccc(CCC(C)O)cc2)c1C#N` (single isomer, unassigned; (+)) [Example 47A, (+)-5-[[4-(3-hydroxybutyl)phenoxy]methyl]-3-methyl-1-phenyl-pyrazole-4-carbonitrile] was tested, and the EC50 was 0.5 µM.
Work on `Cc1nn(-c2ccccc2)c(COc2ccc(CCC(C)O)cc2)c1C#N` (single isomer, unassigned; (-)) [Example 47B, (−)-5-[[4-(3-hydroxybutyl)phenoxy]methyl]-3-methyl-1-phenyl-pyrazole-4-carbonitrile] yielded an EC50 of 2.36 µM.
Work on `Cc1nn(-c2ccccc2)c(COc2ccc(C#N)cc2)c1C#N` [Example 1, 5-[(4-cyanophenoxy)methyl]-3-methyl-1-phenyl-pyrazole-4-carbonitrile] yielded an EC50 of 1.29 µM.
`Cc1nn(-c2ccccc2)c(COc2ccc(CO)cc2Cl)c1C#N` [Example 2, 5-[[2-chloro-4-(hydroxymethyl)phenoxy]methyl]-3-methyl-1-phenyl-pyrazole-4-carbonitrile] showed an EC50 of 1.24 µM.
In the case of `COc1ccc(OCc2c(C#N)c(C)nn2-c2ccccc2)cc1` [Example 3, 5-[(4-methoxyphenoxy)methyl]-3-methyl-1-phenyl-pyrazole-4-carbonitrile], the EC50 is reported as 1.31 µM.
For `Cc1ccc(OCc2c(C#N)c(C)nn2-c2ccccc2)cc1` [Example 4, 3-methyl-5-[(4-methylphenoxy)methyl]-1-phenyl-pyrazole-4-carbonitrile], the EC50 was 1.67 µM.
`Cc1nn(-c2ccccc2)c(COc2ccc(CO)cc2)c1C#N` [Example 5, 5-[[4-(hydroxymethyl)phenoxy]methyl]-3-methyl-1-phenyl-pyrazole-4-carbonitrile] showed an EC50 of 2.31 µM.
`Cc1nn(-c2ccccc2)c(COc2ccc(CCO)cc2)c1C#N` [Example 6, 5-[[4-(2-hydroxyethyl)phenoxy]methyl]-3-methyl-1-phenyl-pyrazole-4-carbonitrile] gave an EC50 of 1.1 µM.
With `Cc1nn(-c2ccccc2)c(COc2ccccc2)c1C#N` [Example 8, 3-methyl-5-(phenoxymethyl)-1-phenyl-pyrazole-4-carbonitrile] the EC50 was 1.52 µM.
Work on `Cc1nn(-c2ccccc2)c(COc2ccc(C#N)cc2F)c1C#N` [Example 10, 5-[(4-cyano-2-fluoro-phenoxy)methyl]-3-methyl-1-phenyl-pyrazole-4-carbonitrile] yielded an EC50 of 3.39 µM.
In the case of `Cc1nn(-c2ccccc2)c(COc2ccc(CO)c(F)c2F)c1C#N` [Example 14, 5-[[2,3-difluoro-4-(hydroxymethyl)phenoxy]methyl]-3-methyl-1-phenyl-pyrazole-4-carbonitrile], the EC50 is reported as 3.09 µM.
In the case of `Cc1cc(CO)ccc1OCc1c(C#N)c(C)nn1-c1ccccc1` [Example 16, 5-[[4-(hydroxymethyl)-2-methyl-phenoxy]methyl]-3-methyl-1-phenyl-pyrazole-4-carbonitrile], the EC50 is reported as 0.86 µM.
For `Cc1cc(CO)cc(C)c1OCc1c(C#N)c(C)nn1-c1ccccc1` [Example 17, 5-[[4-(hydroxymethyl)-2,6-dimethyl-phenoxy]methyl]-3-methyl-1-phenyl-pyrazole-4-carbonitrile], the EC50 was 1.01 µM.
Compound `Cc1nn(-c2ccccc2)c(COc2ccc(F)cc2)c1C#N` [Example 18, 5-[(4-fluorophenoxy)methyl]-3-methyl-1-phenyl-pyrazole-4-carbonitrile] has an EC50 of 1.41 µM.
Compound `Cc1nn(-c2ccccc2)c(COc2ccc(CO)cc2F)c1C#N` [Example 20, 5-[[2-fluoro-4-(hydroxymethyl)phenoxy]methyl]-3-methyl-1-phenyl-pyrazole-4-carbonitrile] has an EC50 of 1.77 µM.
Compound `Cc1nn(-c2ccccc2)c(COc2c(F)cc(CO)cc2F)c1C#N` [Example 21, 5-[[2,6-difluoro-4-(hydroxymethyl)phenoxy]methyl]-3-methyl-1-phenyl-pyrazole-4-carbonitrile] has an EC50 of 1.33 µM.
Compound `Cc1nn(-c2ccccc2)c(COc2ccccc2CO)c1C#N` [Example 23, 5-[[2-(hydroxymethyl)phenoxy]methyl]-3-methyl-1-phenyl-pyrazole-4-carbonitrile] has an EC50 of 8.13 µM.
`Cc1nn(-c2ccccc2)c(COc2cccc(CO)c2)c1C#N` [Example 24, 5-[[3-(hydroxymethyl)phenoxy]methyl]-3-methyl-1-phenyl-pyrazole-4-carbonitrile] showed an EC50 of 7.31 µM.
For `Cc1cccc(C)c1OCc1c(C#N)c(C)nn1-c1ccccc1` [Example 25, 5-[(2,6-dimethylphenoxy)methyl]-3-methyl-1-phenyl-pyrazole-4-carbonitrile], the EC50 was 0.94 µM.
`Cc1ccccc1OCc1c(C#N)c(C)nn1-c1ccccc1` [Example 26, 3-methyl-5-[(2-methylphenoxy)methyl]-1-phenyl-pyrazole-4-carbonitrile] was tested, and the EC50 was 0.58 µM.
With `Cc1nn(-c2ccccc2)c(COc2ccc(CC#N)cc2)c1C#N` [Example 29, 5-[[4-(cyanomethyl)phenoxy]methyl]-3-methyl-1-phenyl-pyrazole-4-carbonitrile] the EC50 was 4.22 µM.
With `Cc1cccc(OCc2c(C#N)c(C)nn2-c2ccccc2)c1C` [Example 30, 5-[(2,3-dimethylphenoxy)methyl]-3-methyl-1-phenyl-pyrazole-4-carbonitrile] the EC50 was 0.71 µM.
`Cc1nn(-c2ccccc2)c(COc2c(F)cc(CCCO)cc2F)c1C#N` [Example 32, 5-[[2,6-difluoro-4-(3-hydroxypropyl)phenoxy]methyl]-3-methyl-1-phenyl-pyrazole-4-carbonitrile] was tested, and the EC50 was 0.09 µM.
`Cc1nn(-c2ccccc2)c(COc2ccc(CCO)cc2F)c1C#N` [Example 33, 5-[[2-fluoro-4-(2-hydroxyethyl)phenoxy]methyl]-3-methyl-1-phenyl-pyrazole-4-carbonitrile] gave an EC50 of 1.27 µM.
Compound `Cc1nn(-c2ccccc2)c(COc2ccc(CCCO)cc2)c1C#N` [Example 35, 5-[[4-(3-hydroxypropyl)phenoxy]methyl]-3-methyl-1-phenyl-pyrazole-4-carbonitrile] has an EC50 of 0.15 µM.
Work on `CCc1ccccc1OCc1c(C#N)c(C)nn1-c1ccccc1` [Example 39, 5-[(2-ethylphenoxy)methyl]-3-methyl-1-phenyl-pyrazole-4-carbonitrile] yielded an EC50 of 7.24 µM.
In the case of `Cc1nn(-c2ccccc2)c(COc2cccc(F)c2)c1C#N` [Example 40, 5-[(3-fluorophenoxy)methyl]-3-methyl-1-phenyl-pyrazole-4-carbonitrile], the EC50 is reported as 0.79 µM.
Compound `Cc1nn(-c2ccccc2)c(COc2ccc(CCCO)cc2F)c1C#N` [Example 42, 5-[[2-fluoro-4-(3-hydroxypropyl)phenoxy]methyl]-3-methyl-1-phenyl-pyrazole-4-carbonitrile] has an EC50 of 0.49 µM.
For `Cc1nn(-c2ccccc2)c(COc2ccc(CC(=O)NCCO)cc2)c1C#N` [Example 49, 2-[4-[(4-cyano-5-methyl-2-phenyl-pyrazol-3-yl)methoxy]phenyl]-~{N}-(2-hydroxyethyl)acetamide], the EC50 was 18.4 µM.
For `COc1cc(CCCO)ccc1OCc1c(C#N)c(C)nn1-c1ccccc1` [Example 53, 5-[[4-(3-hydroxypropyl)-2-methoxy-phenoxy]methyl]-3-methyl-1-phenyl-pyrazole-4-carbonitrile], the EC50 was 0.52 µM.
Compound `Cc1nn(-c2ccccc2)c(COc2ccc(C(C)O)cc2)c1C#N` (stereo not shown) [Example 54, 5-[[4-(1-hydroxyethyl)phenoxy]methyl]-3-methyl-1-phenyl-pyrazole-4-carbonitrile] has an EC50 of 18.4 µM.
In the case of `COCc1ccc(OCc2c(C#N)c(C)nn2-c2ccccc2)cc1` [Example 55, 5-[[4-(methoxymethyl)phenoxy]methyl]-3-methyl-1-phenyl-pyrazole-4-carbonitrile], the EC50 is reported as 2.03 µM.
With `COCCc1ccc(OCc2c(C#N)c(C)nn2-c2ccccc2)cc1` [Example 56, 5-[[4-(2-methoxyethyl)phenoxy]methyl]-3-methyl-1-phenyl-pyrazole-4-carbonitrile] the EC50 was 5 µM.
